# Paper PMC9851200, “Multiparameter phenotypic screening for endogenous TFEB and TFE3 translocation identifies novel chemical series modulating lysosome function” (Autophagy, 2022)
# Experiments:
# [1] = molecular target: T1, kinases (KINOMEscan panel) (Homo sapiens, UniProt Q9UKI8); assay type: binding; settings: kinase TLK1; NEW KINOMEscan
# T1 sequence (Q9UKI8 1-766): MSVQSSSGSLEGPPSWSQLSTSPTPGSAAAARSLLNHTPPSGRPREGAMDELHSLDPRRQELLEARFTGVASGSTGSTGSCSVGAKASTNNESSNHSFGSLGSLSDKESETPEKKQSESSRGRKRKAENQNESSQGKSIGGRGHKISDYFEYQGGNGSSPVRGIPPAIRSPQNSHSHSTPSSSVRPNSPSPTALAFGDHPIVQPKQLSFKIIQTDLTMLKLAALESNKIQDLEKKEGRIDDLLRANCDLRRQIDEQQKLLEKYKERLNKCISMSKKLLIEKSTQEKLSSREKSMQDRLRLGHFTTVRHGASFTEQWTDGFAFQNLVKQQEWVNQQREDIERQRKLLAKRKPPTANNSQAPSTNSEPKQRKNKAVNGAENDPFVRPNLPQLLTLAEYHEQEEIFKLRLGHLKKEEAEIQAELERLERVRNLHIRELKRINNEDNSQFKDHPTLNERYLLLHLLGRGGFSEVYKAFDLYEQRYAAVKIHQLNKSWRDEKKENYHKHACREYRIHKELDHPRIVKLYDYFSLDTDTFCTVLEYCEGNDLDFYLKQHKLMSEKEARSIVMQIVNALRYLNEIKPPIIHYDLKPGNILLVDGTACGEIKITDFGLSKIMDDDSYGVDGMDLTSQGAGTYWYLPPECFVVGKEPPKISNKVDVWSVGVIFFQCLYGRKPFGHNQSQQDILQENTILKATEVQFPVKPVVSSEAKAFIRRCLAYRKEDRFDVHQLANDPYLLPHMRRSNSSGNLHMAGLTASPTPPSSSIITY
# [2] = molecular target: T2, kinases (KINOMEscan panel) (Homo sapiens, UniProt Q6ZN16); assay type: binding; settings: NEW KINOMEscan
# T2 sequence (Q6ZN16 1-1313): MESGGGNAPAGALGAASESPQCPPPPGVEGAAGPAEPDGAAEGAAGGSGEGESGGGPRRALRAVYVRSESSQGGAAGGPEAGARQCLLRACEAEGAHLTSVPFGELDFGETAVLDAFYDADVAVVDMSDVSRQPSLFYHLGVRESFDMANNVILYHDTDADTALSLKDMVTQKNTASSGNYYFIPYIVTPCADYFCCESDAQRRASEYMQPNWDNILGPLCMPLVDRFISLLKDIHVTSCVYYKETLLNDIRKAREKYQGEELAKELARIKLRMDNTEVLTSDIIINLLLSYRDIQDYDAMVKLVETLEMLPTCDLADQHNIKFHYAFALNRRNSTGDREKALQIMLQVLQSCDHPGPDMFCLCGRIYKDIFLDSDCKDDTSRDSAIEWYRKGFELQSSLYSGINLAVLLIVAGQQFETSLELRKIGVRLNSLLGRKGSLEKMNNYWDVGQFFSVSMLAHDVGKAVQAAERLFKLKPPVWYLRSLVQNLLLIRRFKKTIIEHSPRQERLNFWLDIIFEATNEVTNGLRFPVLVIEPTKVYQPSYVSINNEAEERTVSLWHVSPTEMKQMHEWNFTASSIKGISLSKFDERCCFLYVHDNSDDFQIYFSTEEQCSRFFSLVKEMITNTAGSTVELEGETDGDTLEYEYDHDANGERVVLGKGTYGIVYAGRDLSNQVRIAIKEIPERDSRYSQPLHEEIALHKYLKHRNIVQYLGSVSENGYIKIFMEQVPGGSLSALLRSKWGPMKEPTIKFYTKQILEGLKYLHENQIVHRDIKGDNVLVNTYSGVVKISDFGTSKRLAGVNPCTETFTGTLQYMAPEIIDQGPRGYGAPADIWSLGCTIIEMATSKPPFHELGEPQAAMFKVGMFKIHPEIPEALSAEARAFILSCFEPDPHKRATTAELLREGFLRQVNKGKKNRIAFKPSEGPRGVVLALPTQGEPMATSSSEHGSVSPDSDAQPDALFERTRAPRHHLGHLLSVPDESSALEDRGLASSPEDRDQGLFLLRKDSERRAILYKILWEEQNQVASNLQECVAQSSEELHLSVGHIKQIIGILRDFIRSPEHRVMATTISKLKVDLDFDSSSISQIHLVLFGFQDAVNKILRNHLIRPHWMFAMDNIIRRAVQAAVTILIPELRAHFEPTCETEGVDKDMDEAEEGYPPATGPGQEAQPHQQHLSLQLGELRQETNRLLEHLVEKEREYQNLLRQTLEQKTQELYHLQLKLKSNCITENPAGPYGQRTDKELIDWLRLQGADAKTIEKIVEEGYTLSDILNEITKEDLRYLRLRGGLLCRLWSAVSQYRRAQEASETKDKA
structure (smiles),measurement,setting,value
Cc1cccc(-c2nc(N(C)c3ccc4ncsc4c3)c3ccccc3n2)n1 [NK-161],KINOMEscan TLK1,[1],0
same,KINOMEscan MAP3K15,[2],21
Cc1cccc(-c2nc(Nc3ccc4nn(C)cc4c3)c3ccccc3n2)n1 [NK167],KINOMEscan TLK1,[1],0
same,KINOMEscan MAP3K15,[2],21
